Data as given in patent publication US20120045393A1 (priority 2009, published 2012).
Read-outs that look alike come from different tables or passages of the source. Each block holds one molecule with its values, some of them ahead of it. Non-standard residues stand in square brackets, D forms with d. Residues, ends and D or L forms follow the SMILES beside them. Bpa = N[C@@H](Cc1ccc(C(=O)c2ccccc2)cc1)C(=O)O; d2Nal = N[C@H](Cc1ccc2ccccc2c1)C(=O)O; pGlu = O=C1CC[C@@H](C(=O)O)N1; DO3A10CM = not defined here; Bpa4 = non-natural residue; Ampt4 = not defined here; azaGly = NNC(=O)O

Legend:
liver homogenate = settings: female Tac:NCr:Foxn1^nu/nu mice, 37° C., up to 60 min
[1] = test system: LHRH binding sites on human ovarian cancer cells (EFO-27);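 note: Cell-associated radioactivity on confluent EFO-27 monolayers in 96-well plates, measured by microplate scintillation counting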
[2] = test system: PC-3 (human prostate cancer) cells; experiment: Internalization/efflux studies in PC-3 cells; format: cell-based; design: Cell associated activity at 2 h % Efflux / Cell associated activity at 0 h % Memb / Cell associated activity at 2 h % Memb: concentration or dose not given beside the values
Experimental: (§1) Internalization/Efflux Studies: The internalization and efflux studies were carried out following the general procedure. Basically, ^177Lu-LHRH II or ^125I-LHRH II ([^125I-Tyr^8]BRU-2477) (75 uL, 3.0 μCi/mL) was added to the EFO-27 or PC-3 cells. The cells were incubated for 40 min at 37° C. The unbound radioactivity was washed off (4×). Following addition of fresh medium, the cells were further incubated for up to 2 h. At various time points (15, 30, 60 & 120 min) the distribution of radioactivity (membrane-bound, internalized, and efflux) was determined
To determine whether prostate cancer cells (PC-3) behave differently from EFO-27 cells, internalization and efflux studies were carried out with ^177Lu-BRU-2813 using both cell lines.

EFO-27 cells = experiment: Internalization/efflux studies in EFO-27 cells; format: cell-based, human
Experimental: as §1
The internalization and efflux of several Lu-177 labeled LHRH II analogs in EFO-27 cells have been investigated. Basically, following pre-incubation of cells with ^177Lu-LHRH II samples, the binding buffer containing the ^177Lu was replaced with fresh media without complex. The extent of initial internalization (T=0), the amount of radioactive material that remained internalized and the efflux at 0-120 min were determined. The results are shown in FIGS. 21a-f and 22a-c and in Table 25.

[3] = In vitro metabolic stability in mouse liver homogenate at 37° C.; format: in vitro ADME
Experimental: Livers from 10 female Tac:NCr:Foxn1^nu/nu mice were excised, rinsed with ice cold PBS (no Ca^++ or Mg^++) and weighed. The tissues were minced with scissors in Petri dishes on ice with Tris buffered saline (Pierce BupH™ Tris buffered saline packs, #28376; 25 mM Tris, 150 mM NaCl, pH 7.2). After mincing, the tissues were dounce homogenized, and the total volume adjusted with ice cold Tris buffer (4 mL for every gram of excised tissue). The homogenate was centrifuged at ˜4000×g for 10 min at 4° C. The supernatants were aliquoted into Eppendorf tubes on ice (200 and 100 μl volumes) and stored at −80° C. Kidney homogenates were similarly prepared. […] The mixture was centrifuged at 4° C. for 20 min at 20,000×g to precipitate the protein; 10 μL (˜7.6 μCi) of the supernatant was injected into the HPLC for the analysis. […] Peaks at these retention times were also observed in the in vivo plasma sample (FIG. 1). […] After 0 and 60 min, the sample was removed from the incubator, immediately cooled on ice and 2 μL of 10 mM EDTA and 0.2 mL of ice-cooled MeOH were added, mixing after each addition. The proteins in the sample were separated by centrifugation at 14,000 rpm for 20 min. The supernatant was harvested and, in the samples spiked with the ^177Lu-analog, the radioactivity was measured using a Capintec dose calibrator to determine recovery. The sample was then analyzed by HPLC. […] After 0 and 60 min, the sample was removed from the incubator, immediately cooled on ice and 2 μL of 10 mM EDTA and 0.24 mL of ice-cooled methanol was added, mixing after each addition. The proteins in the sample were separated by centrifugation at 14,000 rpm for 20 min. The supernatant was collected and analyzed by LC/MS as described earlier herein.

[4] = molecular target: LHRH binding sites on EFO-27 human ovarian cancer cells (human); experiment: competition with [125I-Tyr8]BRU-2477 on EFO-27 cells
[5] = molecular target: LHRH receptor (LHRH binding sites) on EFO-27 human ovarian cancer cells (human); experiment: competition with [125I-Tyr8]BRU-2477 for binding to EFO-27 cells
[6] = molecular target: LHRH receptor (LHRH binding sites) on EFO-27 human ovarian cancer cells (human); experiment: competition with [125I-Tyr8]BRU-2477, EFO-27 cells
[7] = molecular target: T1, LHRH binding sites on EFO-27 human ovarian cancer cells (human); experiment: competition with [125I-Tyr8]BRU-2477 on EFO-27 cells
T1 chain: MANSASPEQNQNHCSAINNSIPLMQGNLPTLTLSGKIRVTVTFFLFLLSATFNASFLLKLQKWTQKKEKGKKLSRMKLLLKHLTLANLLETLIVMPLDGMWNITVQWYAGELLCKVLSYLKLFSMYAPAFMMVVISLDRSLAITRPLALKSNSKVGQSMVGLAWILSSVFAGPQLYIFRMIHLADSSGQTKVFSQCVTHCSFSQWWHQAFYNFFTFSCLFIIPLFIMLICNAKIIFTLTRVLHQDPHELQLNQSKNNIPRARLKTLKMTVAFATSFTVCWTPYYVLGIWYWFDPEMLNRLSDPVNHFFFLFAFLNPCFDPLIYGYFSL

[8] = Table 19: analogs used in the stabilization studies

Molecule: pGlu-His-Trp-Ser-His-Darg-Trp-Tyr-Ψ(CH2N)-Pro-azaGly-NH2
not cleaved (liver homogenate): 100 ± 0 % remaining after 60 min; no metabolism

Molecule: DO3A10CM-Dnal2-Arg-Trp-Ser-His-Darg-Trp-Bpa4-Thz-azaGly-NH2
not cleaved (liver homogenate): 98.5 ± 0.2 % remaining after 60 min; no metabolism was observed

Molecule: N=C(N)NCCC[C@H](NC(=O)[C@@H](Cc1ccc2ccccc2c1)NC(=O)CN1CCN(CC(=O)O)CCN(CC(=O)O)CCN(CC(=O)O)CC1)C(=O)N[C@@H](Cc1c[nH]c2ccccc12)C(=O)N[C@@H](CO)C(=O)N[C@@H](Cc1cnc[nH]1)C(=O)N[C@H](CCCNC(=N)N)C(=O)N[C@@H](Cc1c[nH]c2ccccc12)C(=O)N[C@@H](Cc1ccc(C(=O)c2ccccc2)cc1)C(=O)N1CCC[C@H]1C(=O)NNC(N)=O [BRU-2813, DO3A10CM-Dnal2-Arg-Trp-Ser-His-Darg-Trp-Bpa-Pro-azaGly-NH2]
more potency than the comparator analog ([1]; BRU-2813 vs BRU-2666, BRU-2964 vs BRU-2813): 30%
EC50 ([1]; EFO-27 cells, competition with [125I-Tyr8]BRU-2477, 90 min): 330 nM
EC50 [1, 8]: 420 nM
Cell associated activity at 0 h % Efflux ([2]; 0 h): 12.5%
Cell associated activity at 0 h % Intern ([2]; 0 h, internalized): 26.2%
Cell associated activity at 0 h % Memb ([2]; 0 h, membrane bound): 61.9%
Cell associated activity at 2 h % Efflux ([2]; 2 h): 75.7%
Cell associated activity at 2 h % Intern ([2]; 2 h, internalized): 7.5%
Cell associated activity at 2 h % Memb ([2]; 2 h, membrane bound): 16.8%
Bound % ([2]; of added): 19.26%
Bound ([2]; per well): 44.3 fmol
Cell associated activity at 0 h % Efflux (EFO-27 cells; 0 h): 8.8%
Cell associated activity at 0 h % Intern (EFO-27 cells; 0 h, internalized): 24.1%
Cell associated activity at 0 h % Memb (EFO-27 cells; 0 h, membrane bound): 66.8%
Cell associated activity at 2 h % Efflux (EFO-27 cells; 2 h): 75.3%
Cell associated activity at 2 h % Intern (EFO-27 cells; 2 h, internalized): 7.4%
Cell associated activity at 2 h % Memb (EFO-27 cells; 2 h, membrane bound): 17.3%
Bound % (EFO-27 cells; of added): 19.10%
Bound (EFO-27 cells; per well): 40.5 fmol

Molecule: DO3A10CM-Dnal2-Arg-Trp-Ser-His-Darg-Trp-Bpa4-Aze-azaGly-NH2
fragment found (liver homogenate): lutetium complex of BRU-3064 (DO3A10CM-Dnal2-Arg-Trp-Ser-His-Darg-Trp-Bpa-OH)

Molecule: pGlu-His-Trp-Ser-His-Darg-Trp-Tyr-Ampc4-azaGly-NH2
not cleaved (liver homogenate): 100 ± 0 % remaining after 60 min; no metabolism

Molecule: N=C(N)NCCC[C@H](NC(=O)[C@@H](Cc1ccc2ccccc2c1)NC(=O)CN1CCN(CC(=O)O)CCN(CC(=O)O)CCN(CC(=O)O)CC1)C(=O)N[C@@H](Cc1c[nH]c2ccccc12)C(=O)N[C@@H](CO)C(=O)N[C@@H](Cc1c[nH]cn1)C(=O)N[C@H](CCCNC(=N)N)C(=O)N[C@@H](Cc1c[nH]c2ccccc12)C(=O)N[C@@H](Cc1ccc(C(=O)c2ccccc2)cc1)C(=O)N1CSC[C@H]1C(N)=O [BRU-3072]
times more potent than the comparator analog ([1]; BRU-2441 vs BRU-2439, BRU-2666 vs Sar1 analog, BRU-3072 vs Pro9 analog): ~2.5
metabolism in liver homogenate ([3]; 37° C. for 60 min, Lu complexes of DO3A10CM peptides, unlabeled BRU-2477 derivatives): no metabolism was observed

Molecule: DO3A10CM-Dnal2-Arg-Trp-Ser-His-Darg-Trp-Bpa4-Ψ(CH2N)Pro-azaGly-NH2
not cleaved (liver homogenate): 100 ± 0 % remaining after 60 min; no metabolism was observed

Molecule: DO3A10CM-Dnal2-Arg-Trp-Ser-His-Darg-Trp-Bpa4-Ampt4-azaGly-NH2
not cleaved (liver homogenate): 98.7 ± 0.1 % remaining after 60 min; no metabolism was observed

Molecule: N=C(N)NCCC[C@@H](NC(=O)[C@H](Cc1c[nH]cn1)NC(=O)[C@H](CO)NC(=O)[C@H](Cc1c[nH]c2ccccc12)NC(=O)[C@H](Cc1c[nH]cn1)NC(=O)[C@@H]1CCC(=O)N1)C(=O)N[C@@H](Cc1c[nH]c2ccccc12)C(=O)N[C@@H](Cc1ccc(O)cc1)C(=O)N1C[C@@H](N)C[C@H]1C(=O)NNC(N)=O [BRU-3123] (HELM PEPTIDE1{[Glp].H.W.S.H.[dR].W.Y.[N[C@H]1C[C@@H](C(=O)[*:2])N([*:1])C1].[O=C(NN[*:1])[*:2]].[am]}$$$$V2.0)
EC50 [1, 8]: 990 nM
remaining at 1 h, 0.3 mg/mL ([3]; female, Tac:NCr:Foxn1nu/nu, mouse, tissue homogenate, pH 7.2): 100%

Molecule: DO3A10CM-Dnal2-Arg-Trp-Ser-His-Darg-Trp-Bpa4-Pip-azaGly-NH2
fragment found (liver homogenate): Lu-DO3A10CM-Dnal2-Arg-Trp-Ser-His-Darg-Trp-Bpa4-Pip-OH

Molecule: DO3A10CM-Dnal2-Arg-Trp-Ser-His-Darg-Trp-Bpa4-Flp4-azaGly-NH2
fragment found (liver homogenate): lutetium complex of BRU-3064 (DO3A10CM-Dnal2-Arg-Trp-Ser-His-Darg-Trp-Bpa-OH)

EC50 [4]: 410 nM
EC50 [5]: 410 nM
EC50 [6]: 410 nM
Molecule: DO3A10CM-[d2Nal]RWSH[dR]W[Bpa][Ampt4][azaGly]-NH2 (reading uncertain; also: printed as DO3A10CM-Dnal2-Arg-Trp-Ser-His-Darg-Trp-Bpa4-Ampt4-azaGly-NH2) [BRU-2995]

EC50 [7]: 1220 nM
Molecule: XFWSHXWXPX (DO3A10CM on N-terminus; AA1 Sar; AA6 Darg; AA8 Bpa4; AA10 azaGly-NH2, AA2 Phe) [BRU-2738]

EC50 [7]: 1180 nM
Molecule: GHWSHXWXPX (DO3A10CM on N-terminus; AA6 Darg; AA8 Bpa4; AA10 azaGly-NH2, AA1 Gly) [BRU-2733]

EC50 [4]: 740 nM
EC50 [5]: 840 nM
Molecule: [pGlu]HWSH[dR]WYP[azaGly]-NH2 [BRU-2477]

EC50 [5]: 720 nM
B1: BRU-3064 (peptide)
peptide: DO3A10CM-[d2Nal]RWSH[dR]W[Bpa4]-OH
modifications: reading uncertain; also: printed as DO3A10CM-Dnal2-Arg-Trp-Ser-His-Darg-Trp-Bpa4-OH

EC50 [5]: 300 nM
EC50 [6]: 300 nM
B2: BRU-3081 (peptide)
peptide: XRWSHXWXPX
modifications: as printed: DO3A10CM-Dnal2-Arg-Trp-Ser-His-Darg-Trp-Bpa4-Ψ(CH2N)-Pro-azaGly-NH2 (reduced amide bond between 8 and 9)

EC50 [4]: 160 nM
fold improved binding against the Pro9 analog (BRU-2813) [4]: 2.5 fold
EC50 [5]: 160 nM
EC50 [6]: 160 nM
Molecule: XRWSHXWXXX (N-terminal DO3A10CM; Dnal2 at 1; Darg at 6; Bpa4 at 8; Thz at 9; azaGly-NH2 at 10) [BRU-3072]

EC50 [4]: 350 nM
EC50 [5]: 350 nM
EC50 [6]: 350 nM
Molecule: XRWSHXWXXX (N-terminal DO3A10CM; Dnal2 at 1; Darg at 6; Bpa4 at 8; Pip at 9; azaGly-NH2 at 10) [BRU-2996]

EC50 [4]: 380 nM
EC50 [5]: 380 nM
EC50 [6]: 380 nM
Molecule: XRWSHXWXXX (N-terminal DO3A10CM; Dnal2 at 1; Darg at 6; Bpa4 at 8; Aze at 9; azaGly-NH2 at 10) [BRU-2993]

EC50 [4]: 600 nM
EC50 [5]: 600 nM
EC50 [6]: 600 nM
B3: BRU-2994 (peptide)
peptide: XRWSHXWXXX
modifications: DO3A10CM on N-terminus; AA1 Dnal2; AA6 Darg; AA8 Bpa4; AA9 Flp4; AA10 azaGly-NH2

EC50 [7]: 1140 nM
Molecule: FHWSHXWXPX (DO3A10CM on N-terminus; AA6 Darg; AA8 Bpa4; AA10 azaGly-NH2, AA1 Phe) [BRU-2735]

EC50 [5]: 3130 nM
Molecule: [pGlu]HWSH[dR]WYP[azaGly]-NH2 (also: reduced amide bond Ψ(CH2N) between Tyr8 and Pro9) [BRU-3122]

EC50 [5]: 15800 nM
Molecule: XRWSHXW (as printed: DO3A10CM-Dnal2-Arg-Trp-Ser-His-Darg-Trp-OH) [BRU-3046]
